Laboratory results: paper PMC7187627 (Antimicrobial Agents and Chemotherapy, 2019)
Entries after “also recorded” stand apart in the source; their conditions may differ. Where two headings read alike, the source gives them in different places.

Key:
C. difficile = system: C. difficile; set-up: method as in PMID 19258353, PMID 19251726; settings: cited from earlier work
[1] = Plasma pharmacokinetics, multiple-ascending-dose phase 1 study; type: in vivo, human; settings: for RAUC (accumulation ratio for AUC) / RCmax (accumulation ratio for Cmax): day 10 vs day 1; for Plasma t1/2 / Plasma t1/2,ss: median (minimum, maximum); for half-life / Cmax / Vd/F: human, plasma, oral; for Vd/F: read-out: Vz/F,ss
Method: This study was conducted in full accordance with the Declaration of Helsinki and good clinical practices (GCP) at Quintiles Phase One Services in Overland Park, KS. Subjects were randomized in a 4:1 fashion (8 active:2 placebo) in each cohort to receive 200 mg, 400 mg, or 600 mg of CRS3123 or matching placebo every 12 h for 10 days (https://clinicaltrials.gov/ct2/show/NCT02106338). Subjects fasted 1 h before and 2 h after administration of the study product with a minimum of 8 oz. (240 ml) of water. Water and noncaffeinated drinks (except grapefruit juice) during the study were not restricted. Informed consent was obtained before any study-related procedures and clinical evaluations were performed. All 30 randomized subjects completed the study; 24 subjects received CRS3123 and 6 subjects received placebo. There were no premature withdrawals or discontinuations.
After a screening period of up to 35 days, eligible subjects were admitted to the study center for baseline evaluations on day −1. On the morning of day 1, eligible subjects were randomized to receive either the study drug or placebo orally every 12 h through day 10. Subjects remained inpatient at the study center until discharge on day 12. During the inpatient period, subjects were monitored for safety and pharmacokinetics (PK). Subjects were followed for 2 additional outpatient visits at the study center, on days 18 ± 2 and 29 ± 2.
PK method development, validation, and sample testing for plasma, feces, and urine were performed at KCAS, LLC (Shawnee, KS). Plasma, urine, and fecal concentrations of CRS3123 were determined by means of validated, sensitive, and specific high-performance liquid chromatography/tandem mass spectrometric (HPLC-MS/MS) assays. The lower limits of quantification of CRS3123 in plasma, feces, and urine were 10.0 ng/ml, 60.0 ng/g, and 100.0 ng/ml, respectively. The validated urine PK assay measured total free CSR3123. Since the majority of urinary CRS3123 was excreted as glucuronide conjugates ([32]), an enzymatic cleavage step using glucuronidase was added to the process to convert the glucuronide conjugates to free CRS3123 for the urine analysis.
The PK population consisted of all subjects who received active study drug (CRS3123) and had at least one measured CRS3123 concentration at a scheduled PK time point after the start of study drug administration.
Pharmacokinetic parameters for plasma were derived using noncompartmental methods with Phoenix WinNonlin version 6.4 (Pharsight Corporation, Certara L.P., Princeton, NJ). PK parameters for urine and feces were derived using SAS version 9.4 (SAS Institute, Inc., Cary, NC). All statistical calculations and reporting were performed using SAS version 9.4. Graphics were prepared with SAS version 9.4 or SigmaPlot 12.5 (Systat Software, Inc., San Jose, CA).
(i) Plasma PK. Plasma concentrations of CRS3123 throughout the 12-h dosing interval on PK days (day 1 and day 10) were summarized using descriptive statistics for each treatment.
One-way analysis of variance (ANOVA) models were used to assess any differences in appropriate PK parameters between adjacent dose levels following a single dose (day 1) and multiple doses (day 10). An ANOVA model on the log-transformed PK parameters (AUC0–12 and Cmax on day 1; AUC0–tau and Cmax on day 10) with fixed effect for treatment was performed separately for the single-dose analysis and multiple-dose analysis. From these models, the least-squares (LS) means together with 95% confidence intervals (Cis) for each dose and the LS means with corresponding 90% CIs for all adjacent dose pairs were calculated. Transformed back from the logarithmic scale, geometric LS means with corresponding 90% CIs were provided for each dose and adjacent dose ratios following both single and multiple dosing. PK accumulation was presented using descriptive statistics, and achievement of steady state was assessed graphically. […]

[2] = 200 mg Q12h, day 10, geometric mean
[3] = 400 mg Q12h, day 10, geometric mean
[4] = 600 mg Q12h, day 10, geometric mean

## O=c1cc(NCCCN[C@@H]2CCOc3c(Br)cc(Br)cc32)[nH]c2ccsc12 [CRS3123]
C. difficile
  C. difficile toxin production and sporulation: inhibits
[1]; [2]
  CL/F,ss: 80.2 L/h
  Plasma Cmin,ss: 0.0852 µg/mL
[1]; 200 mg Q12h, day 10, median
  CL/F,ss: 82.0 L/h
  Plasma Cmin,ss: 0.0762 µg/mL
[1]; 200 mg Q12h, geometric mean
  RAUC (accumulation ratio for AUC): 1.61
  RCmax (accumulation ratio for Cmax): 1.34
[1]; 200 mg Q12h, median
  RAUC (accumulation ratio for AUC): 1.54
  RCmax (accumulation ratio for Cmax): 1.11
[1]; 200 mg Q12h oral, day 1
  Plasma t1/2: 3.0 (2.7, 3.7) h
[1]; 200 mg Q12h oral, day 10
  Plasma t1/2,ss: 4.6 (4.1, 7.0) h
[1]; [3]
  CL/F,ss: 125 L/h
  Plasma Cmin,ss: 0.112 µg/mL
[1]; 400 mg Q12h, day 10, median
  CL/F,ss: 121 L/h
  Plasma Cmin,ss: 0.122 µg/mL
[1]; 400 mg Q12h, geometric mean
  RAUC (accumulation ratio for AUC): 1.37
  RCmax (accumulation ratio for Cmax): 1.22
[1]; 400 mg Q12h, median
  RAUC (accumulation ratio for AUC): 1.21
  RCmax (accumulation ratio for Cmax): 1.19
[1]; 400 mg Q12h oral, day 1
  Plasma t1/2: 3.6 (2.9, 4.3) h
[1]; 400 mg Q12h oral, day 10
  Plasma t1/2,ss: 5.0 (3.4, 7.7) h
[1]; [4]
  CL/F,ss: 149 L/h
  Plasma Cmin,ss: 0.16 µg/mL
[1]; 600 mg Q12h, day 10, median
  CL/F,ss: 162 L/h
  Plasma Cmin,ss: 0.161 µg/mL
[1]; 600 mg Q12h, geometric mean
  RAUC (accumulation ratio for AUC): 1.13
  RCmax (accumulation ratio for Cmax): 1.12
[1]; 600 mg Q12h, median
  RAUC (accumulation ratio for AUC): 1.15
  RCmax (accumulation ratio for Cmax): 1.05
[1]; 600 mg Q12h oral, day 1
  Plasma t1/2: 2.9 (2.6, 4.0) h
[1]; 200 to 600 mg twice daily
  systemic uptake after oral dosing: limited but detectable systemic uptake
[1]; 200 to 600 mg, day 1 and day 10
  dose proportionality of plasma exposure: less than dose proportional
[1]; 10 days twice daily, trough concentration profiles
  accumulation in plasma following multiple twice-daily dosing: minimal accumulation; also recorded: essentially no accumulation
[1]; day 1 and day 10, 200 to 600 mg
  power model slope (β) estimates for AUC and Cmax: well below one
[1]; first dose, 200 mg to 600 mg
  increase of geometric mean AUC0–12 with a 3-fold increase in dose: approximately 2.3 fold
  increase of geometric mean Cmax with a 3-fold increase in dose: ~1.9 fold
[1]; 200 mg, 200 mg Q12h, day 1, geometric mean, read-out: Plasma t1/2 (converted)
  half-life: 3.01 h
[1]; 200 mg, 200 mg Q12h, day 1, median, read-out: Plasma Cmax
  Cmax: 0.342 µg/mL
[1]; 200 mg, 200 mg Q12h, day 10, geometric mean, read-out: Plasma t1/2,ss (converted)
  half-life: 4.71 h
[1]; 200 mg, 200 mg Q12h, day 10, geometric mean
  Vd/F: 591 L
[1]; 200 mg, 200 mg Q12h, day 10, median, read-out: Plasma Cmax,ss
  Cmax: 0.492 µg/mL
[1]; 200 mg, 200 mg Q12h, day 10, median
  Vd/F: 578 L
[1]; 400 mg, 400 mg Q12h, day 1, geometric mean, read-out: Plasma t1/2 (converted)
  half-life: 3.53 h
[1]; 400 mg, 400 mg Q12h, day 1, median, read-out: Plasma Cmax
  Cmax: 0.504 µg/mL
